One block for each compound: values may come before it. Residues, ends and D or L forms follow the SMILES beside them. *: point of attachment. X1 = O=C(c1cc(=O)[nH]c(=O)[nH]1)*
What was measured:
[1] = test system: human platelets
Experimental: (§4) Immediately after the blood collection, the syringe was stirred gently to mix the blood with the sodium citrate solution. The mixed blood was centrifuged (1100 rpm, 250 g) at room temperature for 15 minutes and the rotation was stopped without applying the brake. Then, the supernatant was collected with a pipette to obtain a platelet fraction. The remaining blood was further centrifuged (3000 rpm, 1000 g). The supernatant was collected to obtain platelet-poor plasma and stored.
(§5) The platelet fraction was placed in a polypropylene test tube, which was capped with a membrane filter to ensure breathability. Then, the test tube was placed on a shaker and stored at room temperature while shaking through vibrational amplitude of 20 cm at a frequency of 2 Hz. All the operations were performed under aseptic conditions to prevent the proliferation of bacteria during the storage.
(§6) After the storage for a given period of time, an aliquot of the platelet fraction was sampled and the number of platelets was measured. Prostaglandin E1 (Sigma Co.) was added to give a final concentration of 20 μg/ml and centrifuged at 750 g for 10 minutes. The supernatant was removed and the remainder was washed twice with HEPES-Tyrode's buffer containing prostaglandin E1 to remove the protected peptide. Finally, the platelets were suspended in preliminarily stored platelet-poor plasma. After the incubation for a given period of time, the aggregation ability of the platelets was determined by the method described above.

[2] = test system: human platelets; assay: protection of human platelet fraction during storage
Experimental: as §4, §5, §6

[3] = test system: platelet aggregation; assay: intravenous injection in beagle, platelet aggregation of PRP measured over time; format: in vivo; details: 5 mg/Kg i.v.
Experimental: (1) In order to examine how long the peptides of the present invention and heparin, which is used as an anticoagulant at present, can remain without being broken down or eliminated and how long the activity of them persists, intravenous injection experiments were carried out using beagles.
Since the peptides of the present invention have the platelet aggregation-inhibiting activity, the amount of the peptides which remain in the body of an organism without being broken down can be determined by collecting blood and measuring the platelet aggregation-inhibiting activity of the blood at given intervals of time. Thus, the in vivo stability of the peptides can be estimated.
In the experiments, a male beagle having a body weight of 10 Kg was used. […] The collected blood was centrifuged at 1000 rpm for 10 minutes to prepare platelet-rich plasma (PRP). The reminder was further centrifuged at 3000 rpm for 15 minutes to prepare platelet-poor plasma (PPP).
The platelet aggregation ability was determined by measuring the platelet aggregation of the PRP with collagen and ADP using an aggregometer. In the measurement, ADP was added at a final concentration of 7.5 and 10.0 μM and collagen was added at a final concentration of 7.5 and 10.0 μg/ml.

[4] = test system: blood coagulation in the dialysis circuit; assay: extracorporeal circulation (artificial dialysis) model using a beagle; format: in vivo
Experimental: In order to confirm that the peptides of the present invention have the action of inhibiting blood coagulation in an extracorporeal circulation system, experiments were carried out on an artificial dialysis model using a beagle which is one of extracorporeal circulation models (see Hamano et al., Thromb. Res. 55 (1989) 438-449).
In the experiments, beagles weighing about 10-12 Kg were used. The beagles were anesthetized with pentobarbital (about 30 mg/Kg) and the right hind leg was incised to expose the femoral artery and femoral vein. Cannulas were inserted into the exposed femoral artery and femoral vein and connected to the artificial dialyzator for experiments (Kuraray, Osaka, Japan) having a circuit configuration as shown in FIG. 5. A hollow-fiber dialyzer (RENAK-A, RA-04, 0.4 m^2, Kawasumi Laboratories, Tokyo) was used. A pump for blood was placed between the femoral artery and the dialyzator and operated to keep the blood flow rate at 25 ml/min in the extracorporeal circulation system during the experiments.
The following three parameters were measured in the experiments: 1 the pressure in the up-stream portion of the dialyzer (perfusion pressure), 2 the percent platelet adhesion and 3 the whole blood coagulation time. The pressure under 1 was measured by a pressure gauge incorporated in the upper stream portion of the dialyzator in the dialysis circuit as shown in FIG. 5. Since at the site of dialyzer blood often experiences contacts with foreign materials and blood flows in a narrow space, blood coagulation is most likely to occur at this site in the dialysis circuit. If blood coagulation occurs there, the dialyzer is clogged and the blood pressure in the up-stream portion will increase. The change in the perfusion pressure at this site indicates the degree of blood coagulation in the dialysis circuit. In connection with parameters2 and 3, an aliquot of blood was sampled at the inlet and outlet of the dialysis part at given intervals of time to measure 2 and 3 by conventional methods. Parameters 2 and 3 indicate how the function of platelets and that of blood coagulation (the degree of activation), respectively, change with the progress of the experiments.
The experiments began with a continuous injection of a solution of the peptide of the present invention in saline from the arterial side (or the inlet side of the dialysis circuit) immediately after the circuit set-up. The amount of injection was 10 mg/dog or 30 mg/dog and the total amount was gradually injected over 1 hour (injection rate: 1 ml/min). In a control, only saline was continuously injected in the same manner. The injection of the drug was stopped after 60 minutes and blood was thereafter circulated up to 180 minutes to continue the measurement of the above parameters. […]

[5] = test system: Hela cells; assay: adhesion of HeLa cells to extracellular matrix protein adsorbed plates; format: cell-based
Experimental: (§1) (1) Using type 1 collagen (Iwaki Glass, type I-c), type 4 collagen (Iwaki Glass, type IV), fibronectin (human-origin, Iwaki Glass), vitronectin (human-origin, Iwaki Glass) and laminin (mouse […] sarcoma-origin, Iwaki Glass) as extracellular matrix proteins, experiments were performed to examine cell adhesion to a plastic plate on which those ectracellular matrix proteins had been adsorbed.
(§2) Each of the collagens was diluted with saline (adjusted to pH 3.0 with hydrochloric acid) to prepare a dilution at a concentration of 100 μg/ml for use in adsorption. The remaining three proteins were diluted with PBS of pH 7.4 to prepare dilutions at a concentration of 20 μg/ml for further use. […]
(§3) After the incubation for one hour according to the method described above, all the liquid present in each well was removed and the wells were washed three times with PBS to remove non-adherent cells. […] The concentration of methylene blue releasing from the cells was determined by a spectrophotometer on the basis of absorbance at 600 nm measured. In this measurement system, the number of cells adhering to the extracellular matrix proteins is proportional to the absorbance at 600 nm and therefore can be measured with precision.

[6] = test system: B16F10 melanoma cells; assay: adhesion of B16F10 melanoma cells to extracellular matrix protein adsorbed plates; format: cell-based
Experimental: as §1, §2, §3

[7] = test system: platelet aggregation; details: 400 μM; cited from earlier work
[8] = during the continuous injection of the drug
[9] = type 1 collagen, type 4 collagen, fibronectin, vitronectin

stability when added to a platelet fraction [1]: broken down in several hours
Compound: NC(N)=NCCC[C@H](N)C(=O)NCC(=O)N[C@@H](CC(=O)O)C(=O)N[C@@H](CO)C(=O)O [Comparative Example 1, Arg--Gly--Asp--Ser--OH]

Compound: N=C(N)NCCC[C@H](NC(=O)[C@H](CO)NC(=O)c1cc(=O)[nH]c(=O)[nH]1)C(=O)NCC(=O)N[C@@H](CC(=O)O)C(=O)N[C@@H](Cc1c[nH]c2ccccc12)C(=O)O [Example 9, Orotyl--Ser--Arg--Gly--Asp--Trp--OH] (X1-SRGDW-OH)
aggregation activity of platelets remaining ([2]; 400 μM, after the 72 hour storage): 60-70%
decrease in the number of platelets ([2]; 400 μM, storage period of 72 hours): little decrease in the number of platelets
decrease in the aggregation activity of platelets during storage ([2]; dependent on peptide concentration, control decreased to 25% in 72 hours): the decrease in the aggregation activity was significantly inhibited
decrease in the number of platelets during storage compared to the control group ([2]; room temperature, shaking, dependent on peptide concentration): significant inhibitory effect on the decrease in the number of platelets
platelet aggregation time course with changed collagen concentration or ADP as inducer [3]: the same results were obtained
platelet aggregation 5 minutes after the injection ([3]; collagen 10 μg/ml as inducer): completely inhibited
time to complete recovery of platelet aggregation activity to the level before the injection ([3]; collagen 10 μg/ml as inducer): 45 to 60 min
increase in the perfusion pressure ([4]; 10 mg/dog continuously injected over 1 hour): the increase rate of the perfusion pressure was evidently slow
increase in the perfusion pressure ([4]; 30 mg/dog continuously injected over 1 hour, during the injection): little or no increase in the perfusion pressure
blood coagulation ability during the continuous injection [4, 8]: approximately 0%
whole blood coagulation time [4, 8]: significantly prolonged
effect on cell adhesion to laminin ([5]; laminin): scarcely any effect
cell adhesion to the other extracellular matrix proteins [5, 9]: inhibited depending on the concentration
effect on cell adhesion to laminin ([6]; laminin): scarcely any effect
cell adhesion to the other extracellular matrix proteins [6, 9]: inhibited depending on the concentration

Compound: GRGDSP
aggregation of platelets activated by ADP [7]: completely inhibited

Source: US5498601A, “Platelet aggregation-inhibiting peptides” (Nippon Steel Corporation, priority 1992, dated 1996)
